# Data reported in paper PMC6131557, “Selective Cytotoxicity of Dihydroorotate Dehydrogenase Inhibitors to Human Cancer Cells Under Hypoxia and Nutrient-Deprived Conditions” (Frontiers in Pharmacology, 2018).
# Read-outs that look alike come from different tables or passages of the source.
# How the values were obtained:
# [1] = test system: HCC2998; test: 39-cancer cell panel assay: HCC2998; format: cell-based; conditions: Homo sapiens, HCC 2998, Co
# [2] = test system: SF-295; test: 39-cancer cell panel assay: SF-295; format: cell-based; conditions: Homo sapiens, CNS
# [3] = test system: DU-145; test: 39-cancer cell panel assay: DU-145; format: cell-based; conditions: Homo sapiens, Pro
# [4] = test system: NCI-H522; test: 39-cancer cell panel assay: NCI-H522; format: cell-based; conditions: Homo sapiens, Lu
# [5] = test system: HDF cells; test: Cytotoxicity assay (Cell Counting Kit-8 / WST-8) on HDF cells; format: cell-based; conditions: Homo sapiens
# Protocol: For hypoxia and nutrient-deprived culture conditions, cells were incubated under 1% oxygen in glucose and glutamine-free DMEM (Gibco) without FBS.
# DLD-1 or HDF cells were seeded at 2.5 × 10^4 cells/well on a 96-well plate with normal medium, and cultured overnight under normal culture condition. The cells were washed with PBS and the medium was replaced to either normal medium or glucose and glutamine-free DMEM without FBS. Test compounds or DMSO as a control were added to the wells. The cells in normal medium were cultured under normal culture conditions, while cells in nutrient-deprived medium were cultured under hypoxia condition. After 24 or 48 h incubation, the cells were washed with PBS, 100 μl of fresh normal medium, and 10 μl of Cell Counting Kit-8 solution (Donjindo, Japan) was added to each well. After 3 h incubation under normal culture condition, the absorbance was measured at 450 nm using SpectraMax M2e-TUY microplate reader (Molecular Devices). Cell viability of test wells was calculated based on absorbance of control wells containing DMSO according to manufacturer’s protocol.
# [6] = test system: NCI-H23; test: 39-cancer cell panel assay: NCI-H23; format: cell-based; conditions: Homo sapiens, Lu
# [7] = test system: SF-268; test: 39-cancer cell panel assay: SF-268; format: cell-based; conditions: Homo sapiens, CNS
# [8] = test system: OVCAR-3; test: 39-cancer cell panel assay: OVCAR-3; format: cell-based; conditions: Homo sapiens, Ov
# [9] = Cytotoxicity assay (Cell Counting Kit-8 / WST-8) on DLD-1 cells; format: cell-based, human; conditions: human, DLD-1 colorectal adenocarcinoma cells; DLD-1, original medium, normal oxygen, 100 μM, 24 h
# [10] = test system: NCI-H226; test: 39-cancer cell panel assay: NCI-H226; format: cell-based; conditions: Homo sapiens, Lu
# [11] = test system: HBC-4; test: 39-cancer cell panel assay: HBC-4; format: cell-based; conditions: Homo sapiens, HBC4, Br
# [12] = read-out: IC50 (μM) HDF (24 h) Hypoxia nutrient (-), hypoxia (1% oxygen), nutrient (-)
# [13] = read-out: IC50 (μM) HDF (24 h) Normoxia nutrient (+), normoxia, nutrient (+)
SMILES,GI50 [1] [µM],GI50 [2] [µM],GI50 [3] [µM],GI50 [4] [µM],"IC50 [5, 12] [µM]","IC50 [5, 13] [µM]",GI50 [6] [µM],GI50 [7] [µM],GI50 [8] [µM],"viability at 24 h, 100 µM [9] [%]",GI50 [10] [µM],GI50 [11] [µM]
"C/C(=C\Cc1c(O)c(Cl)c(C)c(C=O)c1O)CC/C=C(\C)[C@@H]1CC(=O)C(C)(C)O1 [Compound 1, ascofuranone]",17,5.3,11,8.4,1.5 ± 0.18,> 100,15,7,8,~80,15,9.1
CC(C)=CCC/C(C)=C/CC/C(C)=C/Cc1c(O)c(Cl)c(C)c(C=O)c1O [Compound 8],12,1.3,0.26,1.2,0.16 ± 0.023,61 ± 5.3,2.8,0.93,1.9,,10,2.2
